We go through 87 compounds from a melting point compilation (Tetko et al.; mined from patent text by program, amines drawn as free bases though some values may be those of a salt).

As a reminder, the melting point is the temperature, or range, at which the solid turns liquid.

Consider `COc1ccc(-c2ccc(N)nn2)cc1OCC(C)C`, for which the melting point came to 187 °C.

As for `CS(=O)(=S)OCc1ccc(C(=O)O)cc1` (configuration not stated), the melting point amounted to 188 °C.

Compound `Clc1ccc(-c2nc(Br)cnc2OCC2CC2)cc1` returned a melting point of 86 to 87 °C.

As to `O=C(Nc1ccc(Oc2ccnc(NC3CCC3)n2)c2ccccc12)c1cc(F)cc(N2CCCCC2)c1`, the melting point is 112 to 114 °C.

With `CC1(C)C(=O)N(c2ccnc(NC(=O)NCc3ccccn3)c2)c2cccnc21`, the melting point lay within 160 to 163 °C.

For `CCCCCCCCCCCc1nnc(CO)n1-c1ccccc1C(=O)c1ccccc1`, the melting point lay in the range of 111 to 112 °C.

`O=C(c1ccc(I)cc1)c1ccc2nc(Cl)nc(-c3cccc(Cl)c3)c2c1` had a melting point of 153 °C.

In the case of `O=[N+]([O-])c1ccccc1S(=O)(=O)c1ccccc1`, the melting point fell in the range of 145 to 146 °C.

With `CC(=O)c1cscc1O`, the melting point fell in the range of 44 to 47 °C.

Take `CN(CC(O)C(Cc1ccccc1)NC(=O)OC(C)(C)C)CC(O)C(Cc1ccccc1)NC(=O)OC(C)(C)C` (configuration not stated): the melting point lay within 62 to 70 °C.

In turn, `Cc1nc2n(C)c(C)cn2c(=O)c1CCN1CCC(n2ccc3ccccc32)CC1` registered a melting point of 166 °C.

Regarding `O=C1c2cc3nnn(CC4(c5cccc(F)c5)CC4)c(=O)c3cc2OC2CCCN12` (configuration not stated), the melting point is 162 to 163 °C.

In turn, `Cc1ccc(NC(=O)NCc2cccc3c2CN(C2CCC(=O)NC2=O)C3=O)cc1C` (configuration not stated) had a melting point of over 260 °C.

On to `Cc1cc(-c2nc3cccnn3c2-c2ccnc(NC(=O)c3ccncc3)c2)ccc1F`, for which the melting point was in the range of 219 to 220 °C.

Regarding `COP(=O)(O)CNc1cc(Cl)c(Oc2ccc(O)c3ccccc23)c(Cl)c1`, the melting point was in the range of 85 to 87 °C.

`COc1cc(OC)c2c(=O)[nH]c(-c3ccc(OCCN4CCCC4)c(C)c3)nc2c1` had a melting point of 230 to 231 °C.

Turning to `COc1ccc(C2CCCCC2)cc1-c1csc(N)n1`, the melting point is 67 °C.

On to `COC(=O)c1ccc(NCc2cc(S(C)(=O)=O)ccc2OCc2ccccc2)cc1`, for which the melting point stood at 124 °C.

In turn, `COC(=O)C(C)(N)Cc1c[nH]c2ccc(Br)cc12` (racemic) registered a melting point of 181 °C.

The compound `COc1ccc(C(=O)Nc2ccccc2)cc1NC(=S)Nc1ccc(C(F)(F)F)cc1` had a melting point of 194 to 196 °C.

With `CC=Cc1cnc(C2=NC(C)(C(C)C)C(=O)N2)c(C(=O)O)c1` (configuration not stated), the melting point lay within 175 to 176 °C.

In turn, `CC1Oc2ccc(C(F)(F)F)cc2NC1=O` (configuration not stated) yielded a melting point of 142 to 144 °C.

`O=C(CCl)Nc1ccc2c(c1NC(=O)CSc1ccccc1)C(=O)c1ccccc1C2=O` returned a melting point of 161 to 162 °C.

`OCc1cc(O)ccc1/C=C/c1ccc(O)cc1` yielded a melting point of 223 to 225 °C.

For the compound `COc1ccc(S(=O)CC(C)=O)cc1` (single isomer, unassigned; (-)), the melting point was in the range of 56 to 58 °C.

`O=C1NCCN(CC(=O)N2CCOCC2)C1c1cccs1` (configuration not stated) gave a melting point of 190 to 193 °C.

`CC(CN1CCCC1)N1c2ccc(Cl)cc2Sc2ccc(C3=NC4CCCCC4N3)cc21` (racemic) had a melting point of 120 °C.

In turn, `O=C(O)C(=O)c1ccc2c(c1)OCO2` registered a melting point of 144 to 146 °C.

Take `COCc1cc(C(O)CNCCCCCCOCCc2ccc(OC)cc2)ccc1O` (configuration not stated): the melting point lay in the range of 97.5 to 98.5 °C.

For the compound `O=C1C[C@]2(c3ccccc3)CCCC[C@H]2C(=O)N1` (relative stereo), the melting point lay within 180 to 182 °C.

Consider `Cc1c(C(=O)Nc2ccc(OCCO)cc2)nnn1Cc1ccc(Cl)c(Cl)c1`, for which the melting point worked out at 140 °C.

The compound `CCOC(=O)CNC(=O)[C@@H](C)NC(=O)CNC(=O)CSC(=O)c1ccccc1` registered a melting point of 137 °C.

With `Cc1c(CCNC(=O)OC(C)(C)C)c2cc(S(=O)(=O)c3cc(F)cc(F)c3)ccc2n1C`, the melting point fell in the range of 182 to 186 °C.

With `O=c1[nH]nc2cc(C(c3c(F)ccc(F)c3F)S(=O)(=O)CCC(F)(F)F)c(Cl)cn12` (configuration not stated), the melting point lay within 209 to 211 °C.

The compound `CC(C)N1CCN(Cc2ccc(Cl)nc2)C1=N[N+](=O)[O-]` displayed a melting point of 138 to 142 °C.

For the compound `COc1ccc(CC(C)NC(C)=O)cc1OCc1ccccc1` (configuration not stated), the melting point stood at 139 °C.

`COC(=O)c1ccc(C=CC(=O)N2CCc3c([nH]c4ccccc34)C2c2ccc3c(c2)CCO3)nc1` (configuration not stated): the melting point was over 260 °C.

`Cc1ccccc1NC(=O)CN(C(=O)CN1C(=O)c2ccccc2C1=O)c1ccccc1` registered a melting point of 160 °C.

Turning to `O=C=NC1(N=NC2(N=C=O)CCCCC2)CCCCC1`, the melting point lay in the range of 38 to 40 °C.

In the case of `COC(=O)c1ccc(NC(=O)CBr)cc1`, the melting point lay in the range of 144 to 146 °C.

Consider `CC1CCCN(S(=O)(=O)c2cc(Cl)cc(C(=O)O)c2)C1` (configuration not stated), for which the melting point is 177 to 179 °C.

In the case of `COc1c(Nc2ncc3ccc(-c4ccccc4N(C)S(C)(=O)=O)n3n2)ccc(N2CCN(C[C@H](C)O)CC2)c1F`, the melting point fell in the range of 86 to 88 °C.

Compound `NC(=O)c1cccc(-c2ccc(Oc3ccccc3)cc2)n1` displayed a melting point of 178 to 180 °C.

In turn, `CCCCOC(=O)N1C(=O)[C@H](O)[C@@H]1c1ccccc1` returned a melting point of 88 to 89 °C.

As to `CCSC(c1ccc(Cl)cc1Cl)C(C(=O)C(C)(C)CF)n1cncn1` (configuration not stated), the melting point is 130 °C.

As to `COc1cccc(C(C)n2nc(C(=O)O)c3c2-c2ccc(OCc4cncnc4)cc2CC3)c1` (configuration not stated), the melting point lay within 200 to 201 °C.

In turn, `COC(=O)c1ccc(-c2ccccc2)cc1S(=O)(=O)NC(=O)Nc1nc(OC)cc(OC)n1` displayed a melting point of 204 to 206 °C.

On to `CCOc1cccc(C(c2ccccc2Cl)n2nc(C(=O)O)c3c2-c2ccc(OCc4cncnc4)cc2CC3)c1` (configuration not stated), for which the melting point was in the range of 234 to 235 °C.

For the compound `O=[N+]([O-])c1c[nH]c(-c2c(Cl)cc(C(F)(F)F)cc2Cl)n1`, the melting point lay within 254 to 255 °C.

As to `Cn1nc(-c2cnc3[nH]cc(C(=O)NCC(C)(C)C)c3n2)c2ccc(F)cc21`, the melting point is 294 to 295 °C.

In turn, `CC(C)=CCn1c(Cl)nc2c1c(=O)[nH]c(=O)n2C` registered a melting point of 226 to 228 °C.

The compound `CCOC(=O)C1=Cc2cc(-c3ccc(CC)cc3)ccc2OCC1` registered a melting point of 81 to 83 °C.

Take `CC(=O)OCC(=O)C1(O)CCC2C3CC=C4C=C(OC(C)=O)C=CC4(C)C34OC4CC21C` (configuration not stated): the melting point stood at 194 °C.

Regarding `CC(C)CCCc1c(C(C)C)nc(C(C)C)c(CO)c1-c1ccc(F)cc1`, the melting point fell in the range of 101 to 103 °C.

Compound `CC(C)(O)CCCCC(C)(C)O` yielded a melting point of 87 °C.

As to `CCOc1cc(C=O)ccc1OCC(=O)O`, the melting point was 90 to 92.6 °C.

Compound `NCCc1cc(Cl)c(NC(=O)CN2CCN(CCCCC(c3ccc(F)cc3)c3ccc(F)cc3)CC2C(N)=O)c(Cl)c1` (configuration not stated) yielded a melting point of 161 °C.

As to `CCCCCCc1ccc(C(=O)Cc2ccc(Br)cc2)cc1`, the melting point stood at 108 °C.

`CC(C)(Oc1ccc(C#N)cc1)C(O)Cc1cnccn1` (configuration not stated) came in with a melting point of 94 to 95 °C.

Regarding `S=c1n(CCc2ccccc2)ccn1C1CCc2ccccc2C1` (configuration not stated), the melting point was in the range of 140 to 142 °C.

`Cc1ccc2c(c1)C1(COc3cc4c(cc31)OCO4)C(=O)N2` (configuration not stated) showed a melting point of 269 to 271 °C.

As to `COC(=O)c1c(S(C)(=O)=O)ccc(C(=O)O)c1C`, the melting point was in the range of 113 to 118 °C.

Consider `O=[N+]([O-])c1cccc(C(c2cccc([N+](=O)[O-])c2)(C(F)(F)F)C(F)(F)F)c1`, for which the melting point fell in the range of 118 to 119 °C.

In the case of `COc1cccc(C(O)CNCCN)c1` (configuration not stated), the melting point stood at 50 °C.

`O=C(OC1CCCCC1)c1cncn1C(c1ccccc1)c1ccccn1` (configuration not stated): the melting point came out at 161 °C.

With `Cc1cc(C)c(C2=C(OC(=O)C(C)(C)C)CC(CC3CCOC3)CC2=O)c(C)c1` (configuration not stated), the melting point was in the range of 108 to 110 °C.

The compound `COc1ccc2nc3c(cc2c1)c(N)nn3C` returned a melting point of 185 to 186 °C.

`CS(=O)(=O)c1ccc(-c2cnn(-c3cccc(Cl)c3)c(=O)c2Cc2ccccc2)cc1`: the melting point lay within 174 to 177 °C.

The compound `CCOC(=O)C1=C(C(F)(F)F)Nc2n[nH]cc2C1c1cccc2ccccc12` (configuration not stated) showed a melting point of 119 to 120 °C.

The compound `C#Cc1ccc2c(c1)C(c1ccccc1)=NC(C)c1c(C(=O)OCC)ncn1-2` (configuration not stated) gave a melting point of 197 to 199 °C.

`O=C(CCl)c1ccc(Oc2ccc(C(=O)CCl)cc2)cc1` yielded a melting point of 129 to 130 °C.

For the compound `O=C(c1cc(C(F)(F)F)cc(C(F)(F)F)c1)N1CCN(C(=O)CN2CCC(O)(c3ccccc3)CC2)C(c2ccc(Cl)c(Cl)c2)C1` (racemic), the melting point lay in the range of 104 to 106 °C.

In turn, `COc1cc2c(cc1OC)C(COCCN1CCN(c3ccc(F)cc3)CC1)OCCC2` (configuration not stated) registered a melting point of 114 °C.

Compound `Nc1ccc(C2=NNC(=O)C3CC23)cc1` (configuration not stated) yielded a melting point of 230 to 231 °C.

As to `O=C1NCc2cc(-c3cnc4[nH]c(=O)n(CC5CCCCC5)c4n3)ccc21`, the melting point lay within 337 to 339 °C.

Take `Clc1ccc2c(c1)C(c1ccccc1Cl)NCc1cncnc1-2` (configuration not stated): the melting point was 169 to 170 °C.

The compound `FC(F)(F)Oc1ccc(-c2coc3ccc(-c4nnc(S)o4)cc23)cc1` displayed a melting point of 197 to 198 °C.

Compound `CN(C)c1ccc2[nH]c(=O)oc(=O)c2c1` showed a melting point of 258 °C.

Turning to `C=C(C)CN1Cc2cc(Cl)cc3[nH]c(=S)n(c23)[C@@H](C)C1`, the melting point turned out to be 171 °C.

In the case of `O=S(=O)(NCCCCn1ccnc1)c1ccc(Br)cc1`, the melting point is 158 to 159 °C.

The compound `COC(=O)c1sc(Cl)nc1-c1ccccc1` displayed a melting point of 55 to 57 °C.

For the compound `CC(c1oc2ccccc2c(=O)c1-c1ccccc1F)n1cnc2c(N)ncnc21` (configuration not stated), the melting point was 247 to 250 °C.

With `COCOc1ccc(C=CC(=O)C=Cc2ccc(OCOC)c(OC)c2)cc1OC`, the melting point lay in the range of 81 to 82 °C.

`O=c1ccc2c(-n3cccn3)nccc2[nH]1` came in with a melting point of over 300 °C.

`CCOC(=O)C(=O)Nc1cc(Cl)cc(NC(=O)C(=O)OCC)n1` gave a melting point of 164 to 166 °C.

For the compound `O=C(COc1ccccc1)N[C@H]1C(=O)N[C@H]1CO` (relative stereo), the melting point lay in the range of 153 to 154 °C.

The compound `CCOC(=O)C=Cc1ccc(Oc2c(-c3ccc(OC)cc3)ccc3cc(OC)ccc23)cc1` returned a melting point of 94 to 97 °C.
